The supplement of paper PMC11208160

Assay: recombinant barcode read abundance after kanamycin selection (control-corrected) (log10(CPM+1)); higher = more efficient recombination; sequences stand for … in AGTGCAGAGAAAATCGGCCAGTTTTCTCTGCCTGCAGTCCGCATGCCGT…AGATTTATGCAGCGGACTGCCTTTCTCCCAAAGTGATAAACCGGACAGTATCATGGACCGGTTTTCCCGGTAATCCGTATTTGCAAGGTTGGTTTCACT; site = the 11-nt target
Description: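 Pooled E. coli target-specificity screen for the IS621 bridge recombinase. Each library plasmid pairs an 11-nt target (CT core) with a bridge RNA whose target-binding loop (9-nt LTG + 4-nt RTG) is reprogrammed; the rest of the 177-nt WT IS621 bridge RNA scaffold is fixed. The plasmid is co-electroporated with a WT donor plasmid; recombinase is induced with 0.1 mM IPTG and recombinants are selected on kanamycin. Recombinant barcodes are sequenced, converted to CPM, averaged over two biological replicates and corrected by the unselected control CPM. Molecule = full bridge RNA written as DNA: LTG = specificity nt 1-9, RTG = reverse complement of specificity nt 8-11, in the WT scaffold.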
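Also: IS621 recombinase and bridge RNA in Escherichia coli cells.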

First: GTCGGGCCTTGGGTTCTAACCTGTTGCCT (site GTCGGGCCTAG)
Second: ACAATGACTTGGGTTCTAACCTGTTGCCT (site ACAGTGACTAG)
The “recombinant barcode read abundance (log10)” value of the first is higher: 0.686 for the first, 0.132 for the second.

“AAGTTAGCTTGGGTTCTAACCTGTTGCGG (site GGCAACTCTAG)” and “GACTGTTCTTGGGTTCTAACCTGTTGCCT (site GTCTGTTCTAG)” are within 0.2 log units of each other in “recombinant barcode read abundance (log10)” value: 0.108 for the first, 0.0588 for the second.

First: CGGCTACCTTGGGTTCTAACCTGTTGCGG (site CGGCTACCTCC)
Second: AATTTCTCTTGGGTTCTAACCTGTTGCCT (site CATTTCTCTAG)
The “recombinant barcode read abundance (log10)” value of the first is higher: 1.29 for the first, 0.0907 for the second.

Compared with “GTAAGAACTTGGGTTCTAACCTGTTGCTT (site GTAAGGACTAA)”, “TAGCTCCCTTGGGTTCTAACCTGTTGCCA (site TAGCTCCCTTG)” is higher in “recombinant barcode read abundance (log10)” value: 0.0891 for the first, 0.662 for the second.

Compared with “TAGCGTCCTTGGGTTCTAACCTGTTGCAC (site TAGCGTCCTGT)”, “AAGGTACCTTGGGTTCTAACCTGTTGCGG (site GTCACTACTAT)” is lower in “recombinant barcode read abundance (log10)” value: 1.11 for the first, 0.0994 for the second.

“CACCCACCTTGGGTTCTAACCTGTTGCCT (site GACCCACCTAG)” and “TGGACTTCTTGGGTTCTAACCTGTTGCTC (site TGGACTTCTCA)” are within 0.2 log units of each other in “recombinant barcode read abundance (log10)” value: 0.0974 for the first, 0.24 for the second.

Compared with “GCGTCACCTTGGGTTCTAACCTGTTGCCT (site TCGTCACCTAG)”, “GGACTAACTTGGGTTCTAACCTGTTGCCT (site GGACTAACTAG)” is higher in “recombinant barcode read abundance (log10)” value: 0.382 for the first, 1.95 for the second.

Going from “TACATCCCTTGGGTTCTAACCTGTTGCCT (site TACATCCCTCG)” to “AAGATATCTTGGGTTCTAACCTGTTGCCT (site AAGATATCTAG)”, the “recombinant barcode read abundance (log10)” value rises from 0.0996 to 1.86.

“ACGATCGCTTGGGTTCTAACCTGTTGCCT (site ACGAGCGCTAG)” and “ATAAAGACTTGGGTTCTAACCTGTTGCCT (site ATCAAGACTAG)” are within 0.2 log units of each other in “recombinant barcode read abundance (log10)” value: 0.12 for the first, 0.181 for the second.

“ACGCACCCTTGGGTTCTAACCTGTTGCCA (site ACGAGCCCTTG)” and “GACCGTCCTTGGGTTCTAACCTGTTGCCT (site GACCGTCCTAT)” are within 0.2 log units of each other in “recombinant barcode read abundance (log10)” value: 0.123 for the first, 0.263 for the second.

“TAGGTGGCTTGGGTTCTAACCTGTTGCCT (site TGGGCGGCTAG)” and “ATTGGATCTTGGGTTCTAACCTGTTGCCT (site ATTGGGTCTAG)” are within 0.2 log units of each other in “recombinant barcode read abundance (log10)” value: 0.105 for the first, 0.0971 for the second.

First: CAGTGGCCTTGGGTTCTAACCTGTTGCCT (site CAGCGGCCTAG)
Second: AGGAACCCTTGGGTTCTAACCTGTTGCTT (site AGGAACCCTCA)
The “recombinant barcode read abundance (log10)” value of the first is lower: 0.124 for the first, 0.328 for the second.

“TAGCCCACTTGGGTTCTAACCTGTTGCGG (site TAGCACACTCC)” and “CTCGACACTTGGGTTCTAACCTGTTGCCT (site CTTGACACTAG)” are within 0.2 log units of each other in “recombinant barcode read abundance (log10)” value: 0.0811 for the first, 0.215 for the second.

“AGCTTATCTTGGGTTCTAACCTGTTGCCT (site AGCTAAACTAG)” and “TCTGTCTCTTGGGTTCTAACCTGTTGCCT (site TGTGTCTCTAC)” are within 0.2 log units of each other in “recombinant barcode read abundance (log10)” value: 0.131 for the first, 0.0569 for the second.

First: GAGGTAGCTTGGGTTCTAACCTGTTGCCT (site GAGGTAGCTAG)
Second: CAGACTTCTTGGGTTCTAACCTGTTGCCT (site CTGACTTCTAG)
The “recombinant barcode read abundance (log10)” value of the first is higher: 1.18 for the first, 0.0642 for the second.

Going from “CTGCGTCCTTGGGTTCTAACCTGTTGCCT (site CTCCGTCCTAG)” to “TTATACACTTGGGTTCTAACCTGTTGCTC (site TTATACACTGA)”, the “recombinant barcode read abundance (log10)” value rises from 0.121 to 0.919.

“AGCATCCCTTGGGTTCTAACCTGTTGCTG (site CATGCGACTAC)” and “AATTTCTCTTGGGTTCTAACCTGTTGCCT (site GATTTCTCTAG)” are within 0.2 log units of each other in “recombinant barcode read abundance (log10)” value: 0.342 for the first, 0.496 for the second.

“CTGCGTACTTGGGTTCTAACCTGTTGCCG (site TCCAAGGCTTA)” and “TGCTCTACTTGGGTTCTAACCTGTTGCTT (site TGATCTACTAA)” are within 0.2 log units of each other in “recombinant barcode read abundance (log10)” value: 0.0663 for the first, 0.122 for the second.

Compared with “CTGCCCGCTTGGGTTCTAACCTGTTGCCT (site CTGCCCGCTAG)”, “GCTCTCCCTTGGGTTCTAACCTGTTGCCT (site GCTCTCCCTAG)” is lower in “recombinant barcode read abundance (log10)” value: 0.667 for the first, 0.305 for the second.

Going from “CCTGGCACTTGGGTTCTAACCTGTTGCGA (site CCTGGCACTTC)” to “GTAACTACTTGGGTTCTAACCTGTTGCTC (site ACGTAACCTAG)”, the “recombinant barcode read abundance (log10)” value falls from 2.37 to 0.0897.

“CTATTTGCTTGGGTTCTAACCTGTTGCAA (site CTAATTGCTTT)” and “TGGACCTCTTGGGTTCTAACCTGTTGCCA (site TGGACCTCTTG)” are within 0.2 log units of each other in “recombinant barcode read abundance (log10)” value: 0.0524 for the first, 0.222 for the second.

“TCTAAGTCTTGGGTTCTAACCTGTTGCCT (site TCTAAGTCTGG)” and “CGTTAGACTTGGGTTCTAACCTGTTGCCT (site CGTCAGACTAG)” are within 0.2 log units of each other in “recombinant barcode read abundance (log10)” value: 0.172 for the first, 0.267 for the second.

Going from “CTAATCCCTTGGGTTCTAACCTGTTGCAT (site CATATCCCTAT)” to “CCAAGGGCTTGGGTTCTAACCTGTTGCAG (site CCAAGGGCTCA)”, the “recombinant barcode read abundance (log10)” value rises from 0.0276 to 1.09.

“CATTATCCTTGGGTTCTAACCTGTTGCCT (site CAGTATCCTAG)” and “CGGCTACCTTGGGTTCTAACCTGTTGCGG (site GACGGCACTAG)” are within 0.2 log units of each other in “recombinant barcode read abundance (log10)” value: 0.0928 for the first, 0.0111 for the second.

“CTGAGGCCTTGGGTTCTAACCTGTTGCCT (site ATGAGGCCTAG)” and “GGATCCTCTTGGGTTCTAACCTGTTGCCG (site GTTTCCTCTCG)” are within 0.2 log units of each other in “recombinant barcode read abundance (log10)” value: 0.226 for the first, 0.0317 for the second.

Going from “GATAGGGCTTGGGTTCTAACCTGTTGCCT (site TTATACACTGA)” to “AAGAACTCTTGGGTTCTAACCTGTTGCCG (site AAGAACTCTCG)”, the “recombinant barcode read abundance (log10)” value rises from 0.135 to 2.1.

Going from “TCAGGATCTTGGGTTCTAACCTGTTGCCT (site TCAGCATCTAG)” to “CGGTAGTCTTGGGTTCTAACCTGTTGCTG (site CGGTAGTCTCA)”, the “recombinant barcode read abundance (log10)” value rises from 0.0751 to 1.08.

First: GCCCGAACTTGGGTTCTAACCTGTTGCCT (site GCGCGAACTAG)
Second: GATCAGCCTTGGGTTCTAACCTGTTGCCT (site GATCAGCCTAG)
The “recombinant barcode read abundance (log10)” value of the first is lower: 0.0267 for the first, 0.445 for the second.

“CGGACGTCTTGGGTTCTAACCTGTTGCCT (site CGGACGCCTAG)” and “CGGCACACTTGGGTTCTAACCTGTTGCCT (site CGCCACACTAG)” are within 0.2 log units of each other in “recombinant barcode read abundance (log10)” value: 0.0491 for the first, 0.0516 for the second.

Going from “GTGTCTCCTTGGGTTCTAACCTGTTGCGA (site GTGTCTCCTTC)” to “GCCAGCTCTTGGGTTCTAACCTGTTGCTG (site CAATTTCCTAT)”, the “recombinant barcode read abundance (log10)” value falls from 0.996 to 0.169.

First: GGGGACCCTTGGGTTCTAACCTGTTGCGC (site GGGGACCCTAC)
Second: GACCGTCCTTGGGTTCTAACCTGTTGCAT (site GACCGTCCTAG)
The “recombinant barcode read abundance (log10)” value of the first is higher: 2.24 for the first, 0.54 for the second.

Going from “TACTACCCTTGGGTTCTAACCTGTTGCGT (site TACTACCCTAC)” to “GACCGTCCTTGGGTTCTAACCTGTTGCCT (site GACCGTCCTAA)”, the “recombinant barcode read abundance (log10)” value falls from 0.358 to 0.0128.

First: TAGCACCCTTGGGTTCTAACCTGTTGCCT (site TAGCACCCTAG)
Second: CACGAGGCTTGGGTTCTAACCTGTTGCCT (site CACGAGTCTAG)
The “recombinant barcode read abundance (log10)” value of the first is higher: 1.79 for the first, 0.322 for the second.
